Measured values taken from patent US20260265280A1, “Prevention/Treatment of Ischemic Reperfusion Injury” (Rev Therapeutics, priority 2023, published 2026).
In brackets after ≈: the same amount, converted by molar mass. Several values for one entry are separate records, joined by “and”; a condition that tells them apart may be missing. Equal entries are not always repeated. Marks after values point to notes of the source that are not given here. Values belong to the compound of their own block, whether it stands above or below them.

What was measured:
[1] = Thermodynamic solubility assay (shake flask, HPLC-UV) in PBS; format: physicochemical; conditions: for solubility thermodynamic at 24 h: 25 °C, aqueous buffer, thermodynamic from solid
Description: Solubility Study: The thermodynamic solubility assay employed was the shake flask method followed by HPLC analysis. The method prepared a saturated solution of the compound, followed by an assay of the solution using HPLC and UV detection. […] About 18 mg compound powder was weighed and placed in a 2 mL glass vial, then PBS buffer was introduced into the vial to obtain a 30-60 mg/mL target concentration. This solution was vortexed for 2 minutes. The solutions were incubated and shook on an orbital shaker for 24 hr at room temperature (25±2° C.). About 500 μL solubility solution was transferred into a new MultiScreen filter plate (Membrane of polycarbonate), filtered by millipore vacuum manifold, and collected in the filtrate as the TS solution. The filtrate was diluted with PBS buffer by a factor of 20 fold to make it diluent. Three UV standard solutions (20, 200, 2000 μg/mL) were injected into HPLC from low to high concentration, followed by testing of the diluent. Testing samples were injected in duplicate. The filtrate was analyzed by HPLC equipped with UV, and the solubility was calculated based on acquired peak areas and dilution factors with a standard external method.

[2] = system: kidney ischemia-reperfusion injury; test: Rat bilateral short-warm kidney ischemia-reperfusion injury (IRI / AKI) system; format: in vivo, Male outbred Sprague-Dawley rats; conditions: oral 103 mg/kg
Description: Brief description of AKI Study: The study examined rats given oral compound Q8 three times at −1 hour, +10 hours, and 24 h post-lesion, or nine times over four days, at −1 hr, +10 hours and every morning and evening. The dose chosen was 103 mg/kg (0.134 mmol/kg). Control groups include a sham operation group receiving drug vehicle, peritoneum open but no ligature application to the kidney artery. A vehicle group in which the artery ligature was applied served as the lesion group. […] This chosen amount is also between the IC95 and the IC50 inhibition of Jnk activity in cell extracts and human PBMCs (Krenitsky et al. Bioorganic & Medicinal Chemistry Letters, 22(3), pp. 1433-1438). It is also similar to the oral Cavg exposure of compound Z at 60 mg/kg, which is an effective dose of compound Z in rat models of AKI (Grynberg et al. Am J Pathol 191:817-828, 2021).
Rat bilateral short-warm kidney ischemia-reperfusion injury (“IRI”) system: Male outbred Sprague-Dawley rats (approximately 300 g from the Monash Animal Research Platform), six/group, were anesthetized using ketamine/xylazine, and surgery performed with both renal pedicles clamped for 25 minutes (ischemia) then released (reperfusion) as previously described (Grynberg et al. Am J Pathol 191:817-828, 2021). […]
Staining used rabbit monoclonal antibodies recognizing collagen I (E8F4L, 1 in 400 dilutions; Cell Signaling Technology, Danvers, MA, USA), followed by biotinylated […] (BA-400, 1 in 500 dilutions; Thermo Fisher, Waltham, MA, USA), and the VECTASTAIN® Elite® ABC-HRP Kit (PK-6100). The interstitial collagen I deposition area was assessed in the outer medulla and cortex by image analysis, avoiding medium and large arteries, using cellSens software V1.18 (Olympus, Notting Hill, Victoria, Australia) as previously described (Leong et al. Toxins 13:700, 2021). […]
Statistical Analysis: Data are shown as means±1 SD. Data were analyzed by one-way analysis of variance with the Tukey multiple comparison tests using GraphPad Prism 9.0 software (GraphPad Software, San Diego, CA).

[3] = In vivo rat pharmacokinetic studies (cleavage of compounds into compound Z); conditions: for Compound Z Present in Plasma at 2 hr After i.p. dose: i.p. dose of compound Qx
Description: Rat pharmacokinetic study samples were used for PK characterization. Male Sprague-Dawley rats weighing 150-300 g were intraperitoneal (ip), intravenous (i.v.) dosed formulated in PBS, pH 7.4. The blood samples at several times post dosing were collected and advanced to plasma preparation with K2EDTA as an anticoagulant.
The blank plasma samples used for the PK characterization control were prepared from undosed rat groups. After IV administration, the amount of parent compound remaining at 0.5 hours after dosing was used as a measure of the cleavage rate. After IP administration, the amount of parent compound remaining at 2 hours after dosing was used as a measure of the cleavage rate. We sought compounds with >90% cleavage.

[4] = system: kidney ischemia-reperfusion injury; conditions: oral; Grynberg et al.; cited from earlier work
cJun phosphorylation = conditions: human skin; cited from earlier work
[5] = PBS buffer, PBS pH 7.4, shaken 24 hr at room temperature (25±2° C.)
[6] = PBS pH 7.4, shaken 24 hr at room temperature (25±2° C.)
[7] = studied at 1 mg/kg in PBS, linearly scaled to 2 mg/kg equivalent dose

improvement in solubility over known compound Z ([1]; PBS): 751 fold | solubility thermodynamic at 24 h [1, 5]: 45600 µg/mL | Compound Qx Present in Plasma at 2 hr After i.p. dose ([3]; studied at 29.8 mg/kg in PBS, linearly scaled to 2 mg/kg equivalent dose): 12^# ng/mL | concentration at 0.5 h ([3]; male, Sprague-Dawley, plasma, intravenous, 1 mg/kg): 21 ng/mL
Compound: O=P([O-])([O-])OCn1/c(=N\c2c(F)cc(F)cc2F)n([C@H]2CCOC2)c2nc(NC3CCC(O)CC3)ncc21.[Na+].[Na+] (stereo partly drawn) [Compound Q8, [[(8Z)-2-[(4-hydroxycyclohexyl)amino]-9-[(3S)-tetrahydrofuran-3-yl]-8-(2,4,6-trifluorophenyl)imino-purin-7-yl]methoxy-sodiooxy-phosphoryl]oxysodium]
reduction of fibrosis component Coll histological staining ([2]; D21 post-lesion): 73% | reduction of tubular damage ([2]; Day 7 post-lesion, PAS stained sections, outer medulla): 65% | reduction of serum/plasma creatinine levels (kidney dysfunction) ([2]; three doses or nine doses over four days, vs. 1D vehicle): 87-88%

Compound: O=P([O-])([O-])OP(=O)([O-])OC1CCC(Nc2ncc3nc(Nc4c(F)cc(F)cc4F)n([C@H]4CCOC4)c3n2)CC1.[Na+].[Na+].[Na+] (stereo partly drawn) [Compound Q9, [Disodiooxyphosphoryloxy-[4-[[9-[(3S)-tetrahydrofuran-3-yl]-8-(2,4,6-trifluoroanilino)purin-2-yl]amino]cyclohexoxy]phosphoryl]oxysodium]
solubility thermodynamic at 24 h [1, 6]: 19400 µg/mL | Compound Qx Present in Plasma at 2 hr After i.p. dose ([3]; studied at 2 mg/kg in PBS): BQL | Compound Qx Present in Plasma at 0.5 hr After i.v. dose [3, 7]: BQL

solubility thermodynamic at 24 h [1, 5]: 75.2 µg/mL
Compound: CC(=O)O[C@H]1CC[C@H](Nc2ncc3nc(Nc4c(F)cc(F)cc4F)n([C@H]4CCOC4)c3n2)CC1 [Compound Q10, [4-[[9-[(3S)-Tetrahydrofuran-3-yl]-8-(2,4,6-trifluoroanilino)purin-2-yl]amino]cyclohexyl] acetate]

solubility thermodynamic at 24 h [1, 5]: < 20 µg/mL
Compound: CCOC(=O)n1/c(=N\c2c(F)cc(F)cc2F)n([C@H]2CCOC2)c2nc(N[C@H]3CC[C@H](O)CC3)ncc21 [Compound Q11]

solubility thermodynamic at 24 h [1, 5]: 29600 µg/mL | concentration at 2 h ([3]; male, Sprague-Dawley, plasma, ip, 2 mg/kg): 214 ng/mL
Compound: C[N+](C)(C)CCOC(=O)O[C@H]1CC[C@H](Nc2ncc3nc(Nc4c(F)cc(F)cc4F)n([C@H]4CCOC4)c3n2)CC1 [Compound Q12, trimethyl-[2-[4-[[9-[(3S)-tetrahydrofuran-3-yl]-8-(2,4,6-trifluoroanilino)purin-2-yl]amino]cyclohexoxy]carbonyloxyethyl]ammonium]

solubility thermodynamic at 24 h [1, 5]: < 20 µg/mL
Compound: CCOC(=O)OC1CCC(Nc2ncc3nc(Nc4c(F)cc(F)cc4F)n([C@H]4CCOC4)c3n2)CC1 (stereo partly drawn) [Compound Q13, Ethyl [4-[[9-[(3S)-tetrahydrofuran-3-yl]-8-(2,4,6-trifluoroanilino)purin-2-yl]amino]cyclohexyl] carbonate]

solubility thermodynamic at 24 h [1, 5]: < 20 µg/mL
Compound: CN(C)C(=O)O[C@H]1CC[C@H](Nc2ncc3nc(Nc4c(F)cc(F)cc4F)n([C@H]4CCOC4)c3n2)CC1 [Compound Q14, [4-[[9-[(3S)-tetrahydrofuran-3-yl]-8-(2,4,6-trifluoroanilino)purin-2-yl]amino]cyclohexyl] N,N-dimethylcarbamate]

solubility thermodynamic at 24 h [1, 5]: 114 µg/mL
Compound: CC(=O)OCn1/c(=N\c2c(F)cc(F)cc2F)n([C@H]2CCOC2)c2nc(N[C@H]3CC[C@H](O)CC3)ncc21 [Compound Q16, [(8Z)-2-[(4-hydroxycyclohexyl)amino]-9-[(3S)-tetrahydrofuran-3-yl]-8-(2,4,6-trifluorophenyl)imino-purin-7-yl]methyl acetate]

solubility thermodynamic at 24 h [1, 5]: 60.6 µg/mL (≈ 135 µM)
Compound: O[C@H]1CC[C@H](Nc2ncc3nc(Nc4c(F)cc(F)cc4F)n([C@H]4CCOC4)c3n2)CC1 [Z, 4-[[9-[(3S)-tetrahydrofuran-3-yl]-8-(2,4,6-trifluoroanilino)purin-2-yl]amino]cyclohexanol]
effective dose in rat models of AKI [4]: 60 mg/kg | plasma concentration that achieved efficacy (suppression of cJun phosphorylation) (cJun phosphorylation): 3.4 uM and 1560 ng/mL

Compound: Trimethyl-[2-oxo-2-[4-[[9-[(3S)-tetrahydrofuran-3-yl]-8-(2,4,6-trifluoroanilino)purin-2-yl]amino]cyclohexoxy]ethyl]ammonium [Compound Q15]
Thermodynamic Solubility in PBS [1, 6]: 17340 µg/mL | Compound Z Present in Plasma at 2 hr After i.p. dose ([3]; studied at 2 mg/kg in PBS): 26.5 ng/mL | Compound Qx Present in Plasma at 2 hr After i.p. dose ([3]; studied at 2 mg/kg in PBS): 125 ng/mL

Compound: [4-[[9-[(3S)-Tetrahydro furan-3-yl]-8-(2,4,6-trifluoroanilino)purin-2-yl]amino]cyclohexyl] disodium phosphate [Compound Q7]
compound still present at 2 hrs post-dosing ([3]; 2 hr post-dosing): 30% | Compound Z Present in Plasma at 2 hr After i.p. dose ([3]; studied at 2 mg/kg in PBS): 83.5 ng/mL | Compound Qx Present in Plasma at 2 hr After i.p. dose ([3]; studied at 2 mg/kg in PBS): 36 ng/mL | Compound Z Present in Plasma at 0.5 hr After i.v. dose ([3]; i.v. dose of compound Qx, studied at 1 mg/kg in PBS, linearly scaled to 2 mg/kg equivalent dose): 232 ng/mL | Compound Qx Present in Plasma at 0.5 hr After i.v. dose [3, 7]: 13 ng/mL
